“And” between values parts separate entries of the source, which are not always exact repeats. Identical values can stand only once. Toxic doses and inconclusive results are not listed. No stated cut-off is given here; in the data, active means T/C of 150% or more; inactive means T/C below 125%.
System: L1210 leukemia ip in BDF1 mice, survival T/C
Test: NCI In Vivo Anticancer Drug Screen. Data for tumor model L1210 Leukemia (intraperitoneal) in B6D2F1 (BDF1) mice
Settings: endpoint: mean survival time, higher = longer survival
Procedure, shortened: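 Tumor was transplanted into mice, which were then dosed with test compound or vehicle alone. Survival was recorded for each group, and the treated figure was expressed relative to the control figure.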

[1] = dose: 100.0 mg/kg/injection, schedule: Q01DX009 (ip), vehicle: saline
[2] = dose: 25.0 mg/kg/injection, schedule: Q01DX009 (ip), vehicle: saline
[3] = dose: 50.0 mg/kg/injection, schedule: Q01DX009 (ip), vehicle: saline
[4] = dose: 100.0 mg/kg/injection, schedule: Q01DX009 (ip), vehicle: Klucel (hydroxypropylcellulose) (HPC)
[5] = dose: 100.0 mg/kg/injection, schedule: Q04DX003 (ip), vehicle: Klucel (hydroxypropylcellulose) (HPC)
[6] = dose: 200.0 mg/kg/injection, schedule: Q01DX009 (ip), vehicle: Klucel (hydroxypropylcellulose) (HPC)
[7] = dose: 200.0 mg/kg/injection, schedule: Q04DX003 (ip), vehicle: Klucel (hydroxypropylcellulose) (HPC)
[8] = dose: 400.0 mg/kg/injection, schedule: Q01DX009 (ip), vehicle: Klucel (hydroxypropylcellulose) (HPC)
[9] = dose: 400.0 mg/kg/injection, schedule: Q04DX003 (ip), vehicle: Klucel (hydroxypropylcellulose) (HPC)
[10] = dose: 25.0 mg/kg/injection, schedule: Q04DX003 (ip), vehicle: Klucel (hydroxypropylcellulose) (HPC)
[11] = dose: 50.0 mg/kg/injection, schedule: Q04DX003 (ip), vehicle: Klucel (hydroxypropylcellulose) (HPC)
[12] = dose: 100.0 mg/kg/injection, schedule: Q01DX009 (ip), vehicle: saline with Tween-80

Measured: T/C

COc1cc(/C=N/NC(=O)c2cccnc2)cc(OC)c1OC
inactive: [1] 102 % of control | dose: 200.0 mg/kg/injection, schedule: Q01DX009 (ip), vehicle: saline 107 % of control | dose: 400.0 mg/kg/injection, schedule: Q01DX009 (ip), vehicle: saline 103 % of control

ClCCN(CCCl)c1ccc(-c2csc(COc3ccccc3)n2)cc1
inactive: dose: 100.0 mg/kg/injection, schedule: Q01DX001 (ip), vehicle: carboxymethylcellulose (CMC) 102 % of control | dose: 200.0 mg/kg/injection, schedule: Q01DX001 (ip), vehicle: carboxymethylcellulose (CMC) 96 % of control | dose: 400.0 mg/kg/injection, schedule: Q01DX001 (ip), vehicle: carboxymethylcellulose (CMC) 91 % of control

N#CCCSC(=N)N
inactive: [2] 107 % of control | dose: 25.0 mg/kg/injection, schedule: Q04DX003 (ip), vehicle: saline 96 % of control | [3] 118 % of control | dose: 50.0 mg/kg/injection, schedule: Q04DX003 (ip), vehicle: saline 102 % of control | dose: 100.0 mg/kg/injection, schedule: Q01DX001 (ip), vehicle: saline 95 % of control | [1] 103 % of control | dose: 100.0 mg/kg/injection, schedule: Q04DX003 (ip), vehicle: saline 107 % of control

CCOC(=O)c1cc([N+](=O)[O-])oc1C
inactive: [4] 102 % of control | [5] 98 % of control | [6] 102 % of control | [7] 94 % of control | [8] 112 % of control | [9] 100 % of control

CCC(c1ccc(OC)cc1)C(O)(CC)c1ccc(OC)cc1 (stereo unspecified)
inactive: [5] 98 % of control | [7] 98 % of control | [9] 102 % of control

CNC(C)COc1ccccc1 (stereo unspecified)
inactive: [2] 101 % of control | dose: 25.0 mg/kg/injection, schedule: Q04DX003 (ip), vehicle: saline with Tween-80 94 % of control | [3] 98 % of control | dose: 50.0 mg/kg/injection, schedule: Q04DX003 (ip), vehicle: saline with Tween-80 91 % of control | dose: 100.0 mg/kg/injection, schedule: Q04DX003 (ip), vehicle: saline with Tween-80 95 % of control

CCN=C(N)CSS(=O)(=O)O
inactive: dose: 25.0 mg/kg/injection, schedule: Q04DX002 (ip), vehicle: Klucel (hydroxypropylcellulose) (HPC) 100 % of control | dose: 50.0 mg/kg/injection, schedule: Q04DX002 (ip), vehicle: Klucel (hydroxypropylcellulose) (HPC) 97 % of control | dose: 100.0 mg/kg/injection, schedule: Q04DX002 (ip), vehicle: Klucel (hydroxypropylcellulose) (HPC) 95 % of control and 110 % of control

CCNC(=O)Nc1ccc(C)cc1C
inactive: [4] 94 % of control | [5] 96 % of control | [6] 103 % of control | [7] 96 % of control | [8] 105 % of control | [9] 95 % of control

CCCCNC(=O)Nc1ccc(C(=O)O)c(O)c1
inactive: [5] 100 % of control | [7] 94 % of control | [9] 93 % of control

c1ccc(-c2cn[nH]c2-c2ccccc2)cc1
inactive: dose: 100.0 mg/kg/injection, schedule: Q04DX002 (ip), vehicle: saline with Tween-80 103 % of control | dose: 200.0 mg/kg/injection, schedule: Q04DX002 (ip), vehicle: saline with Tween-80 100 % of control | dose: 400.0 mg/kg/injection, schedule: Q04DX002 (ip), vehicle: saline with Tween-80 106 % of control

CC#N.CC#N.[Cl][Pt][Cl]
inactive: dose: 6.25 mg/kg/injection, schedule: Q04DX003 (ip), vehicle: water 119 % of control | dose: 12.5 mg/kg/injection, schedule: Q04DX003 (ip), vehicle: water 117 % of control | dose: 25.0 mg/kg/injection, schedule: Q04DX003 (ip), vehicle: water 122 % of control | dose: 50.0 mg/kg/injection, schedule: Q04DX003 (ip), vehicle: water 118 % of control

CCOP(=O)(OCC)/C(=C\c1ccccc1)C(=O)c1ccccc1
inactive: [10] 87 % of control | [11] 87 % of control | dose: 100.0 mg/kg/injection, schedule: Q01DX001 (ip), vehicle: Klucel (hydroxypropylcellulose) (HPC) 107 % of control | [5] 90 % of control | dose: 200.0 mg/kg/injection, schedule: Q01DX001 (ip), vehicle: Klucel (hydroxypropylcellulose) (HPC) 98 % of control | dose: 400.0 mg/kg/injection, schedule: Q01DX001 (ip), vehicle: Klucel (hydroxypropylcellulose) (HPC) 106 % of control

C=CCC/C(=C/C(=O)OCC)OCC=C
inactive: dose: 50.0 mg/kg/injection, schedule: Q01DX009 (ip), vehicle: saline with Tween-80 107 % of control | [12] 114 % of control

N/C(=C\C(=O)c1ccccc1)C(=O)c1ccccc1
inactive: [5] 103 % of control | [7] 108 % of control

COC1CCC(OC2CC(C3(C)CCC4(CC(O)C(C)C(C(C)/C=C(\C)C(=O)C(C)CC(C)C(=O)O)O4)O3)OC3(OC(C4OC(O)(CO)C(C)CC4C)CC3C)C2C)OC1C (stereo unspecified)
inactive: dose: 0.93 mg/kg/injection, schedule: Q01DX001 (ip), vehicle: saline 93 % of control | dose: 1.87 mg/kg/injection, schedule: Q01DX001 (ip), vehicle: saline 90 % of control | dose: 28.0 micrograms/kg/injection, schedule: Q01DX009 (ip), vehicle: saline 94 % of control | dose: 57.0 micrograms/kg/injection, schedule: Q01DX009 (ip), vehicle: saline 88 % of control | dose: 57.0 micrograms/kg/injection, schedule: Q04DX003 (ip), vehicle: saline 94 % of control | dose: 115.0 micrograms/kg/injection, schedule: Q01DX009 (ip), vehicle: saline 105 % of control | dose: 115.0 micrograms/kg/injection, schedule: Q04DX003 (ip), vehicle: saline 91 % of control | dose: 230.0 micrograms/kg/injection, schedule: Q04DX003 (ip), vehicle: saline 89 % of control

OCC(O)C1OCOC2COCOC21 (stereo unspecified)
inactive: dose: 222.0 mg/kg/injection, schedule: Q01DX Z (ip), vehicle: saline 98 % of control | dose: 333.0 mg/kg/injection, schedule: Q01DX Z (ip), vehicle: saline 117 % of control | dose: 500.0 mg/kg/injection, schedule: Q01DX Z (ip), vehicle: saline 105 % of control

Cc1ccc(S(=O)(=O)OC2C(O)OCC3OC(C)(C)OC32)cc1 (stereo unspecified)
inactive: [12] 95 % of control | dose: 200.0 mg/kg/injection, schedule: Q01DX009 (ip), vehicle: saline with Tween-80 88 % of control | dose: 400.0 mg/kg/injection, schedule: Q01DX009 (ip), vehicle: saline with Tween-80 88 % of control

CCCCCCCCCCCCCCCCCCS(=O)(=O)CCCl
inactive: [10] 107 % of control | [11] 100 % of control | [5] 96 % of control | [7] 93 % of control | [9] 91 % of control

O=c1[nH]cnc2cc(Cl)ccc12
inactive: dose: 50.0 mg/kg/injection, schedule: Q01DX009 (ip), vehicle: Klucel (hydroxypropylcellulose) (HPC) 91 % of control | [4] 102 % of control | [6] 100 % of control

COP(=O)(OC)/C(=N\NS(=O)(=O)c1ccc(C)cc1)c1ccccc1
inactive: [5] 94 % of control | [7] 101 % of control | [9] 94 % of control

— PubChem BioAssay AID248 (DTP/NCI, 2004)
